# Measured values: the supplement of paper PMC13380429
# How the values were obtained:
# Conditions in all cases: 72 h
# Caco-2 [1] = assay: relative viability EC50 (midpoint between 100% and the lowest measured viability); higher = less toxic
# Calu-3 [2] = assay: as above
# HepG2 [3] = assay: as above
# U2OS [4] = assay: as above
# Vero E6 [5] = assay: as above
# Caco-2 [6] = assay: cell viability relative to DMSO; higher = less toxic
# Calu-3 [7] = assay: as above
# HepG2 [8] = assay: as above
# U2OS [9] = assay: as above
# Vero E6 [10] = assay: as above
# Caco-2 [11] = assay: drug sensitivity score (DSS) for viability; higher = more toxic; extreme values may be limits of the assay
# Calu-3 [12] = assay: as above
# HepG2 [13] = assay: as above
# U2OS [14] = assay: as above
# Vero E6 [15] = assay: as above
Structure (SMILES),relative viability EC50 (Caco-2 [1]) [µM],relative viability EC50 (Calu-3 [2]) [µM],relative viability EC50 (HepG2 [3]) [µM],relative viability EC50 (U2OS [4]) [µM],relative viability EC50 (Vero E6 [5]) [µM],cell viability (Caco-2 [6]; 1 nM) [%],cell viability (Caco-2 [6]; 10 nM) [%],cell viability (Caco-2 [6]; 100 nM) [%],cell viability (Caco-2 [6]; 1000 nM) [%],cell viability (Caco-2 [6]; 10000 nM) [%],cell viability (Calu-3 [7]; 1 nM) [%],cell viability (Calu-3 [7]; 10 nM) [%],cell viability (Calu-3 [7]; 100 nM) [%],cell viability (Calu-3 [7]; 1000 nM) [%],cell viability (Calu-3 [7]; 10000 nM) [%],cell viability (HepG2 [8]; 1 nM) [%],cell viability (HepG2 [8]; 10 nM) [%],cell viability (HepG2 [8]; 100 nM) [%],cell viability (HepG2 [8]; 1000 nM) [%],cell viability (HepG2 [8]; 10000 nM) [%],cell viability (U2OS [9]; 1 nM) [%],cell viability (U2OS [9]; 10 nM) [%],cell viability (U2OS [9]; 100 nM) [%],cell viability (U2OS [9]; 1000 nM) [%],cell viability (U2OS [9]; 10000 nM) [%],cell viability (Vero E6 [10]; 1 nM) [%],cell viability (Vero E6 [10]; 10 nM) [%],cell viability (Vero E6 [10]; 100 nM) [%],cell viability (Vero E6 [10]; 1000 nM) [%],cell viability (Vero E6 [10]; 10000 nM) [%],drug sensitivity score (Caco-2 [11]),drug sensitivity score (Calu-3 [12]),drug sensitivity score (HepG2 [13]),drug sensitivity score (U2OS [14]),drug sensitivity score (Vero E6 [15])
NC(=O)c1ccc(N(C(N)=O)c2c(F)cccc2F)nc1-c1ccc(F)cc1F [VX-702],> 10,> 10,> 10,> 10,> 10,102,89.9,103,85.6,88.4,101,94.4,94,95.4,87.8,101,109,91.9,110,108,97.8,96.2,96.8,92.6,94.4,92.7,105,88.5,89.1,89.1,1.1,0,0,0,0.7
CCO[C@@H]1OC(=O)C[C@@H]1NC(=O)[C@@H]1CCCN1C(=O)[C@@H](NC(=O)c1ccc(N)c(Cl)c1)C(C)(C)C [VX-765],> 10,> 10,> 10,> 10,> 10,97.7,104,117,98,86,111,93.8,90.5,95.5,98.6,95.5,103,88.4,88.3,92.2,98.2,104,94.7,100,98.8,98.8,102,95.2,93.9,100,0.3,0,0.9,0,0
NC(=O)c1ncn([C@@H]2O[C@H](CO)[C@@H](O)[C@H]2O)c1N [acadesine],> 10,> 10,> 10,> 10,> 10,96.7,98.1,86.4,92.7,95.7,96.6,94.9,84.2,97.8,90.8,98.1,96.1,105,97.9,102,100,91.8,96.5,97.9,102,101,98,100,94.4,97.2,0,0,0,0,0
CC(=O)NCCCS(=O)(=O)O [acamprosate],> 10,> 10,> 10,> 10,> 10,109,102,101,96.3,114,104,102,97.9,105,103,111,98.1,94.5,90.2,110,95.7,99.3,99.3,102,99.2,102,99.5,106,103,103,0,0,0,0,0
CCCCC(CC)CNC(=N)NC(=N)NCCCCCCNC(=N)NC(=N)NCC(CC)CCCC (stereo not given) [alexidine],3.22,> 10,0.964,2.39,3.73,94.6,99.3,105,101,1.2,97.1,105,104,103,105,106,93.2,105,50.7,6,93.6,91.8,99.3,91,3.9,108,106,93.3,109,32.8,5.4,0,11.2,6.8,3.1
C=CC[C@]1(O)CC[C@H]2[C@@H]3CCC4=CC(=O)CCC4=C3C=C[C@@]21C [altrenogest],> 10,> 10,> 10,> 10,> 10,102,98.1,99,107,96.5,107,88,97.6,99,105,107,95.9,93.6,90.2,101,92.7,97.2,96.1,97.7,104,97,97.5,93.2,89.5,104,0,0,0,0,0
NC[C@@H](O)CC(=O)O [aminohydroxybutyric-acid],> 10,> 10,> 10,> 10,> 10,92.1,91,86.2,103,105,98.4,103,97.7,95.1,104,102,91.7,108,97.2,104,93.6,99.7,96.4,106,102,98.6,91.9,93.3,92.4,102,0,0,0,0,0
